Read-outs that look alike come from different tables or passages of the source.
Tests used:
[1] = Plasma protein binding by equilibrium dialysis, mouse plasma; type: in vitro ADME; settings: 37° C., read-out: Free fraction in plasma, Mouse (%)
Experimental: Plasma protein binding rate of compounds was detected by equilibrium dialysis (HTDialysis, HTD 96b). The compound was prepared into a […] stock solution with DMSO, and then 25-fold diluted with 0.05 M sodium phosphate buffer as a working solution. A blank 96-well plate was taken and preloaded with 380 μL of plasma per well. The plasma was then added with the working solution at 20 μL/well and mixed well, with the compound at a final concentration of 1 μM, containing 0.2% DMSO per well.
100 μL of 0.05 M sodium phosphate buffer was added to the reception-side of each dialysis chamber (HTD 96b), and then 100 μL of plasma containing the compound was added to the supply-side. The dialysis chamber was covered with a plastic lid, shaken and incubated at 37° C. for 5 h.
After incubation, 25 μL of samples were taken from each of the supply-side and the reception-side of the dialysis chamber and placed in the blank 96-well plate. An equal volume of plasma was added to each of the supply-side samples while an equal volume of 0.05 M sodium phosphate buffer was added to each of the reception-side samples and mixed well. The 96-well plate was added with an acetonitrile solution containing internal standard at 200 μL per well, vortexed and shaken at 600 rpm for 10 min, and centrifuged at 5594 g for 15 min (Thermo Multifuge×3R). 50 μL of the supernatant was then transferred to a new 96-well plate, and the samples were mixed with 50 μL of ultra-pure water for LC-MS/MS analysis.
Plasma protein binding rate and free fraction were calculated using the following formulas: % binding rate=100×([supply-side concentration]5h−[reception-side concentration]5h)/[supply-side concentration]5h. % free fraction=100−% binding rate.

CYP3A4 = CYP3A4 (Homo sapiens (Human), UniProt P08684); assay: Inhibition test on cytochrome P450 subtype CYP3A4; type: in vitro ADME; settings: compound 10 μM, human liver microsomes
Experimental: The inhibitory potential of compounds on cytochrome P450 (CYP450) subtype CYP3A4 (two substrates of midazolam and testosterone) was detected. First, the compound to be tested was prepared into a 10 mM stock solution in DMSO solvent, and the CYP3A4 inhibitor ketoconazole was prepared as 10 mM, 2.5 mM and 2.5 mM stock solutions in DMSO solvent. The test compound and ketoconazole were diluted to 400-fold final concentration (compound: 10 μM, ketoconazole: 2.5 μM) with acetonitrile.
NADPH cofactor (10 mL of potassium phosphate buffer added with 66.7 mg NADPH) at 4-fold final concentration and substrates were prepared with potassium phosphate buffer (0.1 M, pH=7.4), with CYP3A4 substrate midazolam at a final concentration of […] and CYP3A4 substrate testosterone at a final concentration of 20 μM.
A human liver microsome solution at a concentration of 0.2 mg/mL was prepared with potassium phosphate buffer on ice. A solution of the compound to be tested and a control inhibitor (control compound) solution at 2-fold final concentration were prepared with the human liver microsome solution on ice. The test wells were added with […] of the test compound solution and the control inhibitor solution respectively, and then added with […] of the substrate for duplication. A 96-well assay plate and a NADPH solution were incubated at 37° C. for 5 min, and 15 μL of pre-heated 8 mM NADPH solution was added to the assay plate to initiate the reaction. A CYP3A4 assay plate was pre-incubated at 37° C. for 5 min. The plate was added with 120 μL of acetonitrile to terminate the reaction, and after quenching, the plate was shaken on a shaker (IKA, MTS 2/4) for 10 min (600 rpm/min), and then centrifuged for 15 min. After centrifugation, the supernatant was collected, and added with purified water in a ratio of 1:1 to perform LC-MS/MS detection. A ratio of a peak area of compound to a peak area of internal standard was obtained, and the peak area ratio of the compound was compared with the peak area ratio of the control inhibitor to calculate the inhibition rate.

[2] = Pharmacokinetic test in mice; type: in vivo; settings: mouse, plasma; male ICR mice, oral gavage, 10 mg/kg
Experimental: Male ICR mice (20 to 25 g) were used and fasted overnight. Three mice were taken and orally administered by gavage (10 mg/kg). Blood was collected before the administration, and at 15 min, 30 min, 1 h, 2 h, 4 h, 8 h and 24 h after the administration. 6,800 g of the blood samples were centrifuged at 2 to 8° C. for 6 min, and plasma was collected and stored at −80° C. The plasma at each time point was taken and added with an acetonitrile solution containing internal standard in 3 to 5 times the amount, vortexed and mixed for 1 min, and centrifuged at 13,000 rpm/min at 4° C. for 10 min. The supernatant was collected, added with water in 3 times the amount, and mixed. An appropriate amount of the mixture was taken for LC-MS/MS analysis. The main pharmacokinetic parameters were analyzed using WinNonlin 7.0 software with non-compartmental model.

[3] = pH 7.4, probe midazolam, substrate midazolam, read-out: CYP inhibition rate (%) CYP3A4 (midazolam)
[4] = pH 7.4, probe testosterone, substrate testosterone, read-out: CYP inhibition rate (%) CYP3A4 (testosterone)

CYP3A4, sequence (P08684 whole entry): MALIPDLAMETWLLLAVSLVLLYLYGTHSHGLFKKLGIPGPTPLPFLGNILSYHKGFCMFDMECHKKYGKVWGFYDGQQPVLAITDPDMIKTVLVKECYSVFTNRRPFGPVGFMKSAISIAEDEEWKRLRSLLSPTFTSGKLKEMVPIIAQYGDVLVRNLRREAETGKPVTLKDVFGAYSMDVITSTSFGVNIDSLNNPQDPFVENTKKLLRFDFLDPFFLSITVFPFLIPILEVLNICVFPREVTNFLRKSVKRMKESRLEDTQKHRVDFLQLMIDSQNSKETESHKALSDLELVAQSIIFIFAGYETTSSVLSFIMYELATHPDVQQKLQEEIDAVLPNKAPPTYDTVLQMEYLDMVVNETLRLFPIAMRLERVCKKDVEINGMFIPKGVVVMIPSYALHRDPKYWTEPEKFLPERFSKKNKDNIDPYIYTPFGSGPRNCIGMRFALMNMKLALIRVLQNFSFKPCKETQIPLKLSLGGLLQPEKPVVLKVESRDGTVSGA

Cc1nc(N[C@H](C)c2cccc(S(=O)(=O)C(F)F)c2C)c2cn(C3(CF)CC3)c(=O)cc2n1 [Compound I-1, (R)-4-((1-(3-((difluoromethyl)sulfonyl)-2-methylphenyl)ethyl)amino)-6-(1-(fluoromethyl)cyclopropyl)-2-methylpyrido[4,3-d]pyrimidin-7(6H)-one]
fraction unbound at 5 h, 1 µM [1]: 0.054
inhibition at 5 min, 10 µM (CYP3A4; [3]): 17.8%
inhibition at 5 min, 10 µM (CYP3A4; [4]): 0%

Cc1nc(N[C@H](C)c2cccc(S(=O)(=O)C(F)(F)F)c2F)c2cn(C3(CF)CC3)c(=O)cc2n1 [Compound I-2, (R)-4-((1-(2-fluoro-3-((trifluoromethyl)sulfonyl)phenyl)ethyl)amino)-6-(1-(fluoromethyl)cyclopropyl)-2-methylpyrido[4,3-d]pyrimidin-7(6H)-one]
AUC(0-t) [2]: 517 ng·h/mL
Cmax [2]: 256 ng/mL
Tmax [2]: 30 min
half-life [2]: 59.4 min
fraction unbound at 5 h, 1 µM [1]: 0.028
inhibition at 5 min, 10 µM (CYP3A4; [3]): 10.8%
inhibition at 5 min, 10 µM (CYP3A4; [4]): 0%

— patent US20240166645A1, “PYRIDOPYRIMIDINONE DERIVATIVE, PREPARATION METHOD THEREFOR, AND USE THEREOF” (Wuhan Humanwell Innovative Drug Research and Development …, priority 2021, published 2024)
